Reference: US6512002B2, “Methods of treatment for premature ejaculation in a male” (Pfizer Inc., priority 2000, dated 2003)

Columns and labels:
total serum testosterone = test: Testosterone elevation: total serum testosterone in a random, double-blind, parallel group, placebo-controlled study; type: in vivo, men
Description: In a random, double-blind, parallel group, placebo-controlled study, 3-{1-[4-(2-dimethylamino-ethoxy)-phenyl]-2-phenyl-but-enyl}-phenol was administered to men, aged 72 to 84 with below average serum testosterone levels. Subjects received either placebo or 3-{1-[4-(2-dimethylamino-ethoxy)-phenyl]-2-phenyl-but-enyl}-phenol as a sequential escalating dose, with subjects receiving 20 mg daily for the first month, 40 mg daily for the second month, and 60 mg daily for the final four months (remainder) of the study. Total serum testosterone was determined in the subjects at 4 weeks and at 2, 3 and 6 months.

SMILES	melting point [°C]	Mean Percent Change From Baseline in Testosterone (total serum testosterone; 2 Months, men aged 72 to 84, escalating dose, 40 mg daily for the second month) [%]	Mean Percent Change From Baseline in Testosterone (total serum testosterone; 3 Months, men aged 72 to 84, escalating dose, 60 mg daily for the final four months) [%]	Mean Percent Change From Baseline in Testosterone (total serum testosterone; 6 Months, men aged 72 to 84, escalating dose, 60 mg daily for the final four months) [%]	Mean Percent Change From Baseline in Testosterone (total serum testosterone; Week 4, men aged 72 to 84 with below average serum testosterone, 20 mg daily for the first month) [%]	total serum testosterone versus subjects receiving placebo during the study (total serum testosterone; men aged 72 to 84, 20/40/60 mg daily escalating dose over 6 months, p=0.026)
CCCOc1ncc(C(C)=O)cc1-c1nc2c(CC)n(C3CN(C(C)C)C3)nc2c(=O)[nH]1	162.8 to 163.6					
CCC(=C(c1ccc(OCCN(C)C)cc1)c1cccc(O)c1)c1ccccc1 [Treatment Compound, 3-{1-[4-(2-dimethylamino-ethoxy)-phenyl]-2-phenyl-but-enyl}-phenol]		44.45	41.47	45.19	36.20	significant increase
